Counter-ions that a name gives are not always drawn. Like-named read-outs stand apart in the source and are kept apart here.
How the values were obtained:
IMP-1 = IMP-1 (Serratia marcescens, UniProt P52699); assay: biochemical; assay type: biochemical; settings: fluorescence assay, CCF2-FA substrate, 2 pM enzyme, 2 hours at 25° C.; read-out: IMP-1 IC50
Summary of the method: (§1)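 Fluorescence assay of metallo-β-lactamase activity using CCF2-FA, a cephalosporin-linked 7-hydroxycoumarin–fluorescein substrate. Inhibitor, enzyme and substrate were incubated together for 2 hours at 25° C. IC50 came from a 4-parameter fit of inhibition versus inhibitor concentration.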

NDM-1 = NDM-1 (Klebsiella pneumoniae, UniProt C7C422); assay: biochemical; assay type: biochemical; settings: fluorescence assay, CCF2-FA substrate, 1 pM enzyme, 2 hours at 25° C.; read-out: NDM-1 IC50
Chain of NDM-1 (C7C422 whole entry, looked up, species assumed): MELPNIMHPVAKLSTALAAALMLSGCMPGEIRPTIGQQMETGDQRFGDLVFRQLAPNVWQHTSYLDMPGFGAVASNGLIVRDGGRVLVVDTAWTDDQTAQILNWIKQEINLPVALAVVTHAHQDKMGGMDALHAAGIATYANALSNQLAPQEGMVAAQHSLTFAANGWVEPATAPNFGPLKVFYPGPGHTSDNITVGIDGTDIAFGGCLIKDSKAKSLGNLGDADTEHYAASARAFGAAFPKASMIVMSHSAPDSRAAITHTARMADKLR
Summary of the method: as §1

VIM-1 = VIM-1 (Pseudomonas aeruginosa (strain ATCC 15692 / DSM 22644 / CIP 104116 / JCM 14847 / LMG 12228 / 1C / PRS 101 / PAO1), UniProt A0A0F7KYQ8); assay: biochemical; settings: CCF2-FA substrate, 30 pM enzyme, 2 hours at 25° C.
Summary of the method: as §1

[1] = test system: Escherichia coli expressing NDM-1 (CLB30005, CLB30016); assay type: cell-based; settings: NDM-1 strain, with imipenem 1 μg/ml, 95% inhibition of growth
Summary of the method: (§2)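 Clinical isolates (E. coli NDM-1, S. marcescens IMP-1, K. pneumoniae VIM-1) were diluted 1:100 from saline suspension into 1.1×CAMHB and exposed to test compound with imipenem at 1 μg/ml. Plates were incubated at 35° C for 22 hours to 24 hours, and growth was read by absorbance.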

[2] = test system: Klebsiella pneumoniae expressing VIM-1 (IHMA599644); assay type: cell-based; settings: VIM-1 strain IHMA599644, with imipenem 1 μg/ml, 95% inhibition of growth
Summary of the method: as §2

[3] = test system: Serratia marcescens expressing IMP-1 (CL5741); assay type: cell-based; settings: IMP-1 strain CL5741, with imipenem 1 μg/ml, 95% inhibition of growth
Summary of the method: as §2

[4] = test system: Pseudomonas aeruginosa efflux+ (MB9798), IMP-1; assay type: cell-based; parameters: Concentration of metallo-β-lactamase inhibitor which restores susceptibility of efflux + (MB9798) strain to imipenem: unit not given here; settings: efflux+ MB9798; imipenem at 2 μg/mL; in the presence of a class A, C, D serine β-lactamase inhibitor closely related to relebactam
Summary of the method: (§3)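 Steps: add fixed imipenem and/or ceftazidime (usually CLSI breakpoint) and fixed AmpC-directed class A/C inhibitor to microbroth MIC wells; titrate MBL inhibitor; record concentration regaining susceptibility for each PAO1-derived strain; divide efflux+ by efflux− value.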

[5] = test system: Pseudomonas aeruginosa efflux− (MB9799), IMP-1; assay type: cell-based; settings: efflux− MB9799; imipenem at 2 μg/mL; in the presence of a class A, C, D serine β-lactamase inhibitor closely related to relebactam
Summary of the method: as §3

[6] = test system: Pseudomonas aeruginosa MB9798 vs MB9799; settings: fold difference between efflux+ (MB9798) and efflux− (MB9799) strains; imipenem at 2 μg/mL
Summary of the method: as §3

[7] = fluorescence assay, read-out: VIM-1 IC50

Chain of IMP-1 (P52699 whole entry, looked up, species assumed): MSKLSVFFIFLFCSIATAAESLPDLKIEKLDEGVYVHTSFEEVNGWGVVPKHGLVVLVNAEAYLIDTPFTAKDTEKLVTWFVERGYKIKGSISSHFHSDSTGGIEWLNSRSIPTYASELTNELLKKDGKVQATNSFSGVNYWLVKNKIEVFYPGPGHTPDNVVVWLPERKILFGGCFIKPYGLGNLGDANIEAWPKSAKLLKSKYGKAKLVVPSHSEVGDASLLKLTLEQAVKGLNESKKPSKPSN

Row | Compound | IC50 (IMP-1) [nM] | IC50 (NDM-1) [nM] | IC50 (VIM-1; [7]) [nM] | Escherichia coli MITC95 [1] [µM] | Klebsiella pneumoniae MITC95 [2] [µM] | Serratia marcescens MITC95 [3] [µM] | Concentration of metallo-β-lactamase inhibitor which restores susceptibility of efflux + (MB9798) strain to imipenem [4] | Concentration of metallo-β-lactamase inhibitor which restores susceptibility of efflux − (MB9799) strain to imipenem [5] | Efflux ratio [6] | IC50 (VIM-1; VIM-1 IC50, fluorescence assay) [nM]
1 | NC(=O)c1csc(Nc2cccc(-c3ccc(S(=O)(=O)N[C@@H]4CCNC4)c(S(N)(=O)=O)c3-c3nn[nH]n3)c2)n1 [Example 471, (R)-2-((4′-(N-(pyrrolidin-3-yl)sulfamoyl)-3′-sulfamoyl-2′-(2H-tetrazol-5-yl)-[1,1′-biphenyl]-3-yl)amino)thiazole-4-carboxamide] | 0.111 | 0.0303 | 0.0734 | 1.563 | 3.125 | 1.563 | 3.125 | 0.7813 | 4.00 | –
2 | NS(=O)(=O)c1c(S(=O)(=O)N[C@H]2CCNC2)ccc(-c2cccc(Nc3ncc[nH]3)c2)c1-c1nn[nH]n1 [Example 472, dihydrochloride] | 0.847 | 0.114 | – | 0.7813 | 0.7813 | 0.7813 | 1.563 | 0.3906 | 4.00 | 0.189
3 | NCc1nc2cc(-c3ccc(S(=O)(=O)NC[C@@H](O)CN)c(S(N)(=O)=O)c3-c3nn[nH]n3)ccc2s1 [Example 473, (S)-N1-(3-amino-2-hydroxypropyl)-4-(2-(aminomethyl)benzo[d]thiazol-5-yl)-3-(2H-tetrazol-5-yl)benzene-1,2-disulfonamide] | 0.329 | 0.136 | 0.109 | 0.7813 | 1.563 | 1.563 | 0.7813 | 0.7813 | 1.00 | –
4 | NCc1nc2cc(-c3ccc(S(=O)(=O)N[C@@H](CN)CO)c(S(N)(=O)=O)c3-c3nn[nH]n3)ccc2[nH]1 [Example 474, (S)-N1-(1-amino-3-hydroxypropan-2-yl)-4-(2-(aminomethyl)-1H-benzo[d]imidazol-5-yl)-3-(2H-tetrazol-5-yl)benzene-1,2-disulfonamide] | 0.522 | 0.104 | 0.141 | 0.7813 | 1.563 | 1.563 | 0.7813 | 0.7813 | 1.00 | –
5 | NCc1nc2cc(-c3ccc(S(=O)(=O)N[C@@H](CN)CO)c(S(N)(=O)=O)c3-c3nn[nH]n3)ccc2s1 [Example 475, (S)-N1-(1-amino-3-hydroxypropan-2-yl)-4-(2-(aminomethyl)benzo[d]thiazol-5-yl)-3-(2H-tetrazol-5-yl)benzene-1,2-disulfonamide] | 0.13 | 0.0604 | 0.0869 | 0.7813 | 1.563 | 1.563 | 0.7813 | 0.7813 | 1.00 | –
6 | NCCNS(=O)(=O)c1ccc(-c2ccc3sc(CN)nc3c2)c(-c2nn[nH]n2)c1S(N)(=O)=O [Example 476, N1-(2-aminoethyl)-4-(2-(aminomethyl)benzo[d]thiazol-5-yl)-3-(2H-tetrazol-5-yl)benzene-1,2-disulfonamide] | 0.281 | 0.27 | 0.121 | 1.563 | 1.563 | 0.7813 | 0.7813 | 0.7813 | 1.00 | –
7 | Cc1cc(-c2ccc(S(=O)(=O)NC[C@H](O)CN)c(S(N)(=O)=O)c2-c2nn[nH]n2)cnc1N [Example 477, (R)—N1-(3-amino-2-hydroxypropyl)-4-(6-amino-5-methylpyridin-3-yl)-3-(2H-tetrazol-5-yl)benzene-1,2-disulfonamide] | 0.842 | 0.28 | 0.132 | 0.1953 | 1.563 | 0.7813 | 1.563 | 0.7813 | 2.00 | –
8 | NC[C@@H](O)CNS(=O)(=O)c1ccc(-c2cnc(N)c(F)c2)c(-c2nn[nH]n2)c1S(N)(=O)=O [Example 478, (R)-N1-(3-amino-2-hydroxypropyl)-4-(6-amino-5-fluoropyridin-3-yl)-3-(2H-tetrazol-5-yl)benzene-1,2-disulfonamide] | 0.677 | 0.159 | – | 1.563 | 3.125 | 1.563 | 0.7813 | 0.7813 | 1.00 | 0.0914
9 | C[C@H](N)CNS(=O)(=O)c1ccc(-c2ccc(N)nc2)c(-c2nn[nH]n2)c1S(N)(=O)=O [Example 479, (S)—N1-(2-aminopropyl)-4-(6-aminopyridin-3-yl)-3-(2H-tetrazol-5-yl) benzene-1,2-disulfonamide] | 0.664 | 0.224 | 0.299 | 0.1953 | 1.563 | 0.7813 | 0.7813 | 0.7813 | 1.00 | –
10 | C[C@@H](N)CNS(=O)(=O)c1ccc(-c2ccc(N)nc2)c(-c2nn[nH]n2)c1S(N)(=O)=O [Example 480, (R)—N1-(2-aminopropyl)-4-(6-aminopyridin-3-yl)-3-(2H-tetrazol-5-yl) benzene-1,2-disulfonamide] | 0.32 | 0.227 | 0.249 | 0.1953 | 1.563 | 0.3906 | 0.7813 | 0.7813 | 1.00 | –
11 | NS(=O)(=O)c1c(S(=O)(=O)NC[C@H]2CNCCN2)ccc(-c2cccc3[nH]cnc23)c1-c1nn[nH]n1 [Example 481, (R)-4-(1H-benzo[d]imidazol-4-yl)-N1-(piperazin-2-ylmethyl)-3-(1H-tetrazol-5-yl)benzene-1,2-disulfonamide] | 0.251 | 0.0455 | 0.119 | 3.125 | 3.125 | 1.563 | 1.563 | 1.563 | 1.00 | –
12 | NCCNCCNS(=O)(=O)c1ccc(-c2ccc(N)nc2)c(-c2nn[nH]n2)c1S(N)(=O)=O [Example 482, N1-(2-(-2-amineoethylamino)ethyl)-4-(6-aminopyridin-3-yl)-3-(2H-tetrazol-5-yl)benzene-1,2-disulfonamide] | 1.14 | 0.537 | – | 0.1953 | 1.563 | 0.7813 | 1.563 | 0.7813 | 2.00 | 0.333

Reference: US10221163B2 (priority 2015, dated 2019)
